± gives the standard deviation of the averaged measurements.
Legend:
Details in all cases: 72 h
[1] = tested on: HepG2; experiment: drug sensitivity score (DSS) for viability; higher = more toxic; extreme values may be limits of the assay
[2] = tested on: Caco-2; experiment: as above
[3] = tested on: U2OS; experiment: as above
[4] = tested on: Calu-3; experiment: as above
[5] = tested on: Vero E6; experiment: as above
[6] = tested on: HepG2; experiment: cell viability relative to DMSO; higher = less toxic
[7] = tested on: Caco-2; experiment: as above
[8] = tested on: U2OS; experiment: as above
[9] = tested on: Calu-3; experiment: as above
[10] = tested on: Vero E6; experiment: as above
[11] = tested on: HepG2; experiment: relative viability EC50 (midpoint between 100% and the lowest measured viability); higher = less toxic
[12] = tested on: Caco-2; experiment: as above
[13] = tested on: U2OS; experiment: as above
[14] = tested on: Calu-3; experiment: as above
[15] = tested on: Vero E6; experiment: as above

| SMILES | drug sensitivity score [1] | drug sensitivity score [2] | drug sensitivity score [3] | drug sensitivity score [4] | drug sensitivity score [5] | cell viability ([6]; 1 nM) [%] | cell viability ([6]; 10 nM) [%] | cell viability ([6]; 100 nM) [%] | cell viability ([6]; 1000 nM) [%] | cell viability ([6]; 10000 nM) [%] | cell viability ([7]; 1 nM) [%] | cell viability ([7]; 10 nM) [%] | cell viability ([7]; 100 nM) [%] | cell viability ([7]; 1000 nM) [%] | cell viability ([7]; 10000 nM) [%] | cell viability ([8]; 1 nM) [%] | cell viability ([8]; 10 nM) [%] | cell viability ([8]; 100 nM) [%] | cell viability ([8]; 1000 nM) [%] | cell viability ([8]; 10000 nM) [%] | cell viability ([9]; 1 nM) [%] | cell viability ([9]; 10 nM) [%] | cell viability ([9]; 100 nM) [%] | cell viability ([9]; 1000 nM) [%] | cell viability ([9]; 10000 nM) [%] | cell viability ([10]; 1 nM) [%] | cell viability ([10]; 10 nM) [%] | cell viability ([10]; 100 nM) [%] | cell viability ([10]; 1000 nM) [%] | cell viability ([10]; 10000 nM) [%] | relative viability EC50 [11] [µM] | relative viability EC50 [12] [µM] | relative viability EC50 [13] [µM] | relative viability EC50 [14] [µM] | relative viability EC50 [15] [µM] |
| --- | --- | --- | --- | --- | --- | --- | --- | --- | --- | --- | --- | --- | --- | --- | --- | --- | --- | --- | --- | --- | --- | --- | --- | --- | --- | --- | --- | --- | --- | --- | --- | --- | --- | --- | --- |
| CCCCCCCCCCCCCCCC[N+](C)(C)Cc1ccccc1 [benzyldimethylhexadecylammonium] | 4.8 | 6.3 | 4.6 | 3 | 0 | 113 | 101 | 102 | 93.7 | 30.6 | 93.9 | 96.1 | 91.9 | 89.4 | 18 | 99.6 | 101 | 102 | 102 | 14.1 | 94.9 | 105 | 105 | 102 | 41.2 | 99 | 94.6 | 100 | 94.5 | 92.8 | 2.41 | 2.12 | 3.28 | 3.39 | > 10 |
| CN(C)CCC(c1ccc(Br)cc1)c1ccccn1 (stereo not given) [brompheniramine] | 0 | 0 | 0 | 0 | 0 | 99.3 | 98.5 | 96.4 | 93.7 | 88.1 | 92.3 | 75.3 | 96.6 | 101 | 96.2 | 106 | 101 | 102 | 97.6 | 102 | 94.9 | 99.5 | 96.6 | 94.5 | 88.9 | 98.8 | 102 | 100 | 105 | 94.9 | > 10 | > 10 | > 10 | > 10 | > 10 |
| O=C(O)C1(C(=O)O)CCC1.[NH2-].[NH2-].[Pt+2] [carboplatin] | 0 | 0 | 0 | 0 | 0 | 106 | 98.7 | 99.5 | 90.7 | 103 | 97.8 | 102 | 85.4 | 94.9 | 100 | 94.3 | 95.9 | 93.2 | 100 | 108 | 90.8 | 98.8 | 93.6 | 90.7 | 106 | 99.6 | 92.5 | 103 | 98.4 | 109 | > 10 | > 10 | > 10 | > 10 | > 10 |
| CCC(C)(Oc1ccc(C2(c3ccc(OC(C)(CC)C(=O)O)cc3)CCCCC2)cc1)C(=O)O (stereo not given) [clinofibrate] | 0 | 0 | 0 | 0 | 0 | 93.9 | 106 | 92.6 | 120 | 108 | 103 | 98.2 | 99 | 105 | 104 | 96.9 | 98.3 | 102 | 95.6 | 94.9 | 96.1 | 93.7 | 99.9 | 102 | 98.9 | 96.4 | 101 | 96 | 99.2 | 107 | > 10 | > 10 | > 10 | > 10 | > 10 |
| COC(=O)[C@H](c1ccccc1Cl)N1CCc2sccc2C1 [clopidogrel] | 0 | 0 | 0 | 0 | 0 | 97.7 | 97.7 | 98.4 | 112 | 101 | 91.9 | 91.8 | 95.1 | 95 | 88.2 | 94.8 | 99.3 | 95.8 | 102 | 97.6 | 89.9 | 104 | 96.9 | 96.7 | 101 | 105 | 86.7 | 104 | 104 | 108 | > 10 | > 10 | > 10 | > 10 | > 10 |
| CCC(C)CCCC(=O)N[C@@H](CCN)C(=O)N[C@H](C(=O)N[C@@H](CCN)C(=O)N[C@H]1CCNC(=O)[C@H]([C@@H](C)O)NC(=O)[C@H](CCN)NC(=O)[C@H](CCN)NC(=O)[C@H](CC(C)C)NC(=O)[C@@H](CC(C)C)NC(=O)[C@H](CCN)NC1=O)[C@@H](C)O (stereo not given in full) [colistin] | 0 | 0 | 0 | 0.95 ± 1.3 | 0 | 94 ± 1.7 | 105 ± 2 | 99.3 ± 11 | 103 ± 2 | 97.5 ± 8.1 | 94.7 ± 6.2 | 98.4 ± 1.8 | 101 ± 7.6 | 104 ± 1.4 | 101 ± 10 | 99.7 ± 1.4 | 100 ± 2 | 97.8 ± 0.14 | 102.75 ± 0.071 | 99.2 ± 1.1 | 100 ± 4 | 93.4 ± 4.2 | 94.3 ± 4.8 | 98 ± 15 | 85.4 ± 7.2 | 101 ± 2.5 | 101 ± 2.5 | 104 ± 2.5 | 98.5 ± 1.2 | 103 ± 1.6 | > 10 | > 10 | > 10 | > 10 | > 10 |
| O=C(O)c1ccc(OCCn2ccnc2)cc1 [dazoxiben] | 0 | 0 | 0 | 0 | 0 | 104 | 103 | 84.5 | 102 | 89.8 | 108 | 92.7 | 114 | 98.2 | 101 | 99.8 | 96.5 | 103 | 91.4 | 103 | 101 | 97.7 | 103 | 102 | 97.7 | 96.3 | 101 | 96.9 | 103 | 110 | > 10 | > 10 | > 10 | > 10 | > 10 |
| COc1ccc2c(c1)[C@]13CCCC[C@@H]1[C@H](C2)N(C)CC3 [dextromethorphan] | 0 | 0 | 0 | 0 | 0 | 111 | 108 | 95.8 | 103 | 109 | 98.1 | 98.9 | 104 | 97.7 | 97.7 | 97.1 | 98.3 | 99.7 | 95.3 | 97.1 | 95.6 | 106 | 89.6 | 99.3 | 102 | 92.1 | 100 | 97.3 | 95.9 | 104 | > 10 | > 10 | > 10 | > 10 | > 10 |
| N#Cc1ccc(N2CCN(C(=O)COc3ccc4[nH]cc(CCN)c4c3)CC2)cc1 [donitriptan] | 0 | 0 | 0 | 0 | 0 | 102 | 105 | 94.1 | 102 | 94.8 | 92.4 | 88.7 | 89 | 97.1 | 104 | 101 | 102 | 99.4 | 99.7 | 107 | 89 | 103 | 107 | 106 | 111 | 95.1 | 101 | 98 | 98.5 | 107 | > 10 | > 10 | > 10 | > 10 | > 10 |
| CCN[C@H]1C[C@H](C)S(=O)(=O)c2sc(S(N)(=O)=O)cc21 [dorzolamide] | 0 | 0 | 0 | 0 | 0 | 113 | 93.7 | 104 | 94.9 | 99.4 | 101 | 108 | 84 | 94.7 | 100 | 95.2 | 100 | 93.6 | 101 | 97.4 | 100 | 100 | 95.7 | 88.3 | 98.4 | 98.5 | 101 | 92.6 | 98.1 | 91.1 | > 10 | > 10 | > 10 | > 10 | > 10 |
| CCN(CC)C(=O)/C(C#N)=C/c1cc(O)c(O)c([N+](=O)[O-])c1 [entacapone] | 0 | 0 | 0 | 0 | 0 | 98.3 | 84.1 | 102 | 92.2 | 100 | 93.7 | 98.4 | 95.5 | 96 | 93.2 | 96.8 | 102 | 98 | 98.9 | 99.7 | 92.3 | 86.9 | 94.7 | 98.5 | 101 | 100 | 99.2 | 93.2 | 96 | 100 | > 10 | > 10 | > 10 | > 10 | > 10 |
| O=C(O[C@@H]1Cc2c(O)cc(O)cc2O[C@@H]1c1cc(O)c(O)c(O)c1)c1cc(O)c(O)c(O)c1 [epigallocatechin-gallate-(-)] | 0 | 0 | 0 | 0 | 0 | 101 | 107 | 93.1 | 97.8 | 97.5 | 103 | 99.1 | 97.7 | 99.7 | 101 | 100 | 98.2 | 103 | 97 | 97.3 | 103 | 90.5 | 103 | 96.8 | 97.1 | 98.5 | 100 | 103 | 98.2 | 95.4 | > 10 | > 10 | > 10 | > 10 | > 10 |
| O=c1ccc2cc(O[C@@H]3O[C@H](CO)[C@@H](O)[C@H](O)[C@H]3O)c(O)cc2o1 [esculin] | 0 | 0 | 0 | 0 | 0 | 104 | 97.3 | 97.4 | 101 | 96 | 93 | 105 | 91.7 | 102 | 99.6 | 100 | 99.4 | 96.8 | 103 | 98.2 | 95.4 | 101 | 91 | 96 | 107 | 105 | 98.8 | 102 | 95.4 | 104 | > 10 | > 10 | > 10 | > 10 | > 10 |
| CCc1cccc2c3c([nH]c12)C(CC)(CC(=O)O)OCC3 (stereo not given) [etodolac] | 0 | 0 | 0 | 0 | 0 | 105 | 107 | 96.3 | 94.4 | 99.1 | 86.2 | 99.4 | 82.7 | 86.9 | 87.9 | 95.7 | 103 | 96.2 | 104 | 93.4 | 98 | 107 | 98.7 | 91.9 | 106 | 91.7 | 98.8 | 93.7 | 105 | 95.2 | > 10 | > 10 | > 10 | > 10 | > 10 |

Source: the supplement of paper PMC13380429
